Measurements published in patent publication US5362412A, “Biodegradable bleach stabilizers for detergents” (priority 1991, dated 1994).

Experiments:
[1] = Perborate stabilization in the presence of Mn ions (peroxide remaining after hot storage, iodine/starch titration); conditions: pH 10.1
Method: (§1) The hydrogen peroxide responsible for the bleaching action in sodium perborate based laundry detergents is decomposed catalytically by transition metal ions such as Mn^II and Cu^II. This degradation can be prevented by complexing the metal ions.
(§2) The peroxide stabilizing effect of stabilizers in accordance with the invention was tested by measuring the peroxide present before and after storage in a hot aqueous solution which contains copper or manganese ions.
(§3) A solution of 0.2 g (2×10^-3 mols) sodium perborate monohydrate; 10.0 ml of hardness standard (3:1 CaCl2 :MgCl2, 1×10^-6 mols total); 3.0 ml of metal standard (5.4×10^-8 mol Mn^II or 4.7×10^-8 mols Cu^II); and 2.0 ml stabilizer solution (4.2×10^-7 mols stabilizer) was diluted to 100 ml with distilled water. The pH was adjusted to 10.1 and the solution was stirred at 70° C. for 20 minutes. Ten ml aliquots of the solution were tested after 10 minutes by first neutralizing the solution with sulfuric acid and then titrating with iodine and starch.
(§4) The percentage of peroxide remaining after storage was determined using a starch/iodine titration procedure.

[2] = Perborate stabilization in the presence of Cu ions (peroxide remaining after hot storage, iodine/starch titration); conditions: pH 10.1
Method: as §1, §2, §3, §4

[3] = Sodium perborate stabilization in wash liquors (bleaching of grape juice stained swatches); conditions: 5.2×10^-5 mol/l stabilizer, sodium perborate-monohydrate 0.8 g/l, 50° C., 15 minutes, pH 10.3; for ΔE (brightness of the swatches): Fe^III, Cu^II, Mn^II; for % Stain Removal: in duplicate
Method: The efficiency of the bleaching action of a laundry detergent containing the stabilizers of the invention was measured by washing white poly-cotton fabric swatches previously stained with grape juice. The test was carried out using the following detergent formulation: […]
Sodium Dodecyl Benzene Sulfonate
Grape juice stained, poly-cotton fabric swatches purchased from Scientific Services, Oakland, N.J., were washed in a Tergitometer at 50° C. for 15 minutes in a wash solution containing sodium perborate-monohydrate 0.8 g/l; 4.0 g/l of the zeolite-based detergent as described above; 100 ppm Hardness (3:1 Ca:Mg); 2 ppm Fe^III; 1 ppm Cu^II; and 1 ppm Mn^II (from AA standards); and 5.2×10^-5 mol/l stabilizer. The pH of the wash solution was 10.3. The swatches were then rinsed for 5 minutes in 25° C. water and air dried.
The efficiency of the bleaching action was determined by measuring the brightness (ΔE) of the swatches and the percentage of soil removed from the swatches.
ΔE was calculated in accordance with ASTM E 308-66(81) standards, using the following formula: [formula] wherein L=Lightness 0 black, 100 white a=Redness if +, Greenness if -, Gray is 0 b=Yellow if +, Blue if -, Gray is 0
Δ measurements are before and after washing
Percent stain removal was calculated in duplicate in accordance with ASTM D3050-75 standards, using the following formula: [formula] where D=reflectance by detergent head with green filter (brightness).

[4] = conventional tests; cited from earlier work
[5] = 5.4×10^-8 mol Mn^II, 4.2×10^-7 mols stabilizer in 100 ml, 70° C.
[6] = 4.7×10^-8 mols Cu^II, 4.2×10^-7 mols stabilizer in 100 ml, 70° C.

SMILES	Stability in Presence of Mn^2 Ions, % Remaining [1, 5] [%]	Stability in Presence of Cu^+2 Ions, % Remaining [2, 6] [%]	ΔE (brightness of the swatches) [3]	% Stain Removal [3] [%]	Stability in Presence of Mn^2 Ions, % Remaining [1] [%]	Stability in Presence of Cu^+2 Ions, % Remaining [2] [%]	biodegradability [4]
O=C(O)CCN(CC(=O)O)CC(=O)O [BADA]	45.0	50.4	98.0	83.3			
O=C(O)CNC(CC(=O)O)C(=O)O (stereo not drawn) [AspMA, Aspartic acidN-monoacetic acid]			87.6	84.4	21.5	0.0	
O=C(O)CN(CC(=O)O)CC(O)CN(CC(=O)O)CC(=O)O [HPDTA, hydroxypropylenediaminetetraacetic acid]							insufficiently biodegradable
O=C(O)CSC(CC(=O)O)C(=O)O (stereo not drawn) [CMMS, Carboxymethylmercaptosuccinic acid]	54.5	31.3	102.3	84.5			
O=C(O)CN(CCN(CC(=O)O)CC(=O)O)CC(=O)O [EDTA, Ethylenediaminetetraacetic acid, reference compound]	87.5	82.8	86.2	79.7			insufficiently biodegradable
CC(CN(CC(=O)O)CC(=O)O)N(CC(=O)O)CC(=O)O (stereo not drawn) [PDTA, propylenediaminetetraacetic acid]							insufficiently biodegradable
O=C(O)CC(C(=O)O)N(CC(=O)O)CC(=O)O (stereo not drawn) [AspDA, Aspartic acidN,N-diacetic acid]	25.6	28.6	93.9	83.7			
O=C(O)CC(NC(CC(=O)O)C(=O)O)C(=O)O (stereo not drawn) [ISA, Iminodisuccinic acid]	13.6	79.0	92.7	81.4			
